In article PMC4746285, “Functional Analysis of the Citrate Activator CitO from Enterococcus faecalis Implicates a Divalent Metal in Ligand Binding” (Frontiers in Microbiology, 2016):
Read-outs that look alike come from different tables or passages of the source.

Legend:
CitO-wt [1] = molecular target: T1, CitO-wt (Enterococcus faecalis, UniProt Q82YV4); type: biochemical; conditions: for Effect on CitO-PcitH−CL complex formation: EDTA-treated CitO-wt
TM0439 = molecular target: TM0439; design: method as in Zheng et al., 2009; conditions: ref Zheng et al., 2009; cited from earlier work
CitO-wt [2] = molecular target: T1, CitO-wt; assay: Isothermal titration calorimetry of CitO-wt with citrate; type: binding
Protocol: Measurements were performed on a VP-Microcalorimeter (MicroCal, Northampton, MA) at 25°C. The proteins were thoroughly dialyzed against 10 mM Tris (pH 8.0), 500 mM NaCl, and 2.5% glycerol. A solution of citrate (1 mM, pH 8.0) was directly prepared in dialysis buffer. Each titration involved a series of 3 μl injections of the effector molecule into the protein solution. The mean enthalpies measured from injection of the ligand in the buffer were subtracted from raw titration data prior to data analysis with Origin 8 software (MicroCal). Titration curves were fitted by a nonlinear least squares method to a function for the binding of a ligand to a macromolecule (Wiseman et al., [1989]). From the curve thus fitted, the parameters ΔH (reaction enthalpy), KA (binding constant, KA = 1/KD), and N (reaction stoichiometry) were determined. From the values of KA and ΔH, the changes in free energy (ΔG) and entropy (ΔS) were calculated with the following equation: ΔG = −RT lnKA = ΔH−TΔS; where R is the universal molar gas constant and T is the absolute temperature.

CitO-Q64A [3] = molecular target: T2, CitO-Q64A (Enterococcus faecalis, UniProt Q82YV4, Q64A); assay: biochemical; type: binding
CitO-H74A [4] = molecular target: T3, CitO-H74A (Enterococcus faecalis, UniProt Q82YV4, H74A); assay: biochemical; type: binding
CitO-R97A [5] = type: binding; conditions: ITC, 25°C, ni = no interaction
CitO-F143A [6] = molecular target: T4, CitO-F143A (Enterococcus faecalis, UniProt Q82YV4, F143A); assay: biochemical; type: binding
CitO-H191A [7] = type: binding; conditions: ITC, 25°C, ni = no interaction
CitO-L214A [8] = molecular target: T5, CitO-L214A (Enterococcus faecalis, UniProt Q82YV4, L214A); assay: biochemical; type: binding
CitO-wt [9] = molecular target: T1, CitO-wt; type: binding
Protocol: The assay was carried out as described earlier (Pagliai et al., [2010]). Briefly, CitO (10 μM), in presence or absence of increasing concentrations of citrate or malate (the latter was used as a negative control), was placed (in duplicate) into 96-well plates (Bio-Rad, Hercules, CA) and heated from 25 to 80°C at the rate of 1°C per min. The unfolding of the protein was monitored by the increase in fluorescence of the fluorophore SYPRO Orange (Invitrogen). Fluorescence intensities were plotted against temperature for each sample well and transition curves were fitted with the Boltzmann equation using Origin 8 software (Northampton, MA). The midpoint of each transition curve was calculated and values obtained in presence of the ligand compared to those calculated for CitO in absence of the ligand.

CitO-Q64A [10] = molecular target: T2, CitO-Q64A; type: binding; conditions: DSF
CitO-H74A [11] = molecular target: T3, CitO-H74A; type: binding; conditions: DSF
CitO-R97A [12] = type: binding; conditions: DSF, citrate up to 1 mM
CitO-F143A [13] = molecular target: T4, CitO-F143A; type: binding; conditions: DSF, 50 μM citrate, Tm = 50°C without citrate
CitO-H191A [14] = type: binding; conditions: DSF, citrate up to 1 mM
CitO-L214A [15] = molecular target: T5, CitO-L214A; type: binding; conditions: DSF, only at 50 μM citrate or higher
CitO-Q64A [16] = molecular target: T2, CitO-Q64A; type: biochemical; conditions: EMSA, 5 mM citrate
CitO-H74A [17] = molecular target: T3, CitO-H74A; type: biochemical; conditions: EMSA, 5 mM citrate
CitO-R97A [18] = type: biochemical; conditions: EMSA, 5 mM citrate
CitO-F143A [19] = molecular target: T4, CitO-F143A; type: biochemical; conditions: EMSA, 5 mM citrate
CitO-H191A [20] = type: biochemical; conditions: EMSA, 5 mM citrate
CitO-L214A [21] = molecular target: T5, CitO-L214A; type: biochemical
PcitCL promoter activity = assay: β-galactosidase assay, PcitCL fusion to lacZ in JHB14 strains expressing CitO variants; type: cell-based, E. faecalis; conditions: for β-galactosidase activity: LB with 17 mM citrate
CitO = test system: CitO; design: method as in Blancato et al., 2008; conditions: in vivo and in vitro experiments; ref Blancato et al., 2008; cited from earlier work
[22] = molecular target: CitO, regulator of citrate metabolism from Enterococcus faecalis (Enterococcus faecalis); assay: SEC; Superdex 75; 200 ul of 28.4 uM CitO, with or without 1 mM citrate (pH 8.0), 30 min on ice before injection; 50 mM Tris pH 7.6, 300 mM NaCl, 5% glycerol; 4°C; mass from a standard curve of protein standards
[23] = test system: T6, CitO-L214A L214A (Enterococcus faecalis), ORF:7f2fe6d0; assay: EMSA
T6 sequence: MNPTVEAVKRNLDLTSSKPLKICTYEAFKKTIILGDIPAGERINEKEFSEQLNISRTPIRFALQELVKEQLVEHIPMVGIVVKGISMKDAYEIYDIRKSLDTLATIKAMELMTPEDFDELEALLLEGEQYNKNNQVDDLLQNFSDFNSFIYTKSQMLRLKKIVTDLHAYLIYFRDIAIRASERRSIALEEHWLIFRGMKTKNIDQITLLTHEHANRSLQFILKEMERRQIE

[24] = EMSA, 0.2 μM CitO-wt, Me2+ 2 mM, absence of citrate
[25] = EMSA, Me2+ 2 mM together with 5 mM citrate
[26] = DSF, CitO-wt, ligand added, without ligand Tm1 = 43°C, Tm2 = 58°C

## [Ca+2] [Ca^2+]
CitO-wt [1]; [24]
  Effect on binding of CitO to PcitH−CL: did not modify the binding

## O=C(O)CN(CCN(CC(=O)O)CC(=O)O)CC(=O)O [EDTA]
CitO-wt [1]
  Effect on binding of CitO to PcitH−CL: decreased the binding

## [Mg+2] [Mg^2+]
CitO-wt [1]; [24]
  Effect on binding of CitO to PcitH−CL: did not modify the binding

## [Mn+2] [Mn^2+]
CitO-wt [1]; [24]
  Effect on binding of CitO to PcitH−CL: did not modify the binding

## [Ni+2] [Ni^2+]
CitO-wt [1]; [24]
  Effect on binding of CitO to PcitH−CL: decreased the binding
CitO-wt [1]; [25]
  Effect on CitO-PcitH−CL complex formation: increased the stability of the larger CitO-PcitH−CL complexes
TM0439
  KD: nanomolar range

## [Zn+2] [Zn^2+]
CitO-wt [1]; [24]
  Effect on binding of CitO to PcitH−CL: decreased the binding
CitO-wt [1]; [25]
  Effect on CitO-PcitH−CL complex formation: increased the stability of the larger CitO-PcitH−CL complexes
TM0439
  KD: nanomolar range

## O=C(O)CC(O)(CC(=O)O)C(=O)O [citrate]
CitO-wt [2]
  Kd: 1.2 ± 0.2 µM
CitO-wt [2]; ITC, CitO-wt
  ΔG: -7.9834 kcal/mol
  ΔH: 6.122 kcal/mol
  ΔS (entropy change): 47.3 cal/mol/deg
CitO-Q64A [3]
  Kd: 0.77 ± 0.1 µM
CitO-Q64A [3]; ITC, CitO-Q64A
  ΔG: -8.34 kcal/mol
  ΔH: 6.724 kcal/mol
CitO-H74A [4]
  Kd: 0.82 ± 0.04 µM
CitO-H74A [4]; ITC, CitO-H74A
  ΔG: -8.4346 kcal/mol
  ΔH: 6.5 kcal/mol
CitO-R97A [5]
  KD: did not interact and ni^*
CitO-F143A [6]
  Kd: 0.44 ± 0.08 µM
CitO-F143A [6]; ITC, CitO-F143A
  ΔG: -8.6857 kcal/mol
  ΔH: 16.02 kcal/mol
CitO-H191A [7]
  KD: did not interact and ni^*
CitO-L214A [8]
  Kd: 1.2 ± 0.2 µM
CitO-L214A [8]; ITC, CitO-L214A
  TΔS: 46.5 cal/mol/deg
  ΔG: -8.07 kcal/mol
  ΔH: 5.78 kcal/mol
CitO-wt [9]; [26]
  Shift in the Tm2: induced a shift in the Tm2
CitO-Q64A [10]; 5 μM citrate
  Shift in Tm: clear shift in Tm
CitO-Q64A [10]; 50 μM citrate
  Thermal stability: higher stability
CitO-H74A [11]
  Interaction with citrate in solution: still able to interact with citrate
CitO-R97A [12]
  Denaturation temperature in presence vs absence of citrate: denatured at similar temperature
CitO-F143A [13]
  Tm: 57 °C
CitO-H191A [14]
  Denaturation temperature in presence vs absence of citrate: denatured at similar temperature
CitO-L214A [15]
  ΔTm (increase in Tm2): 4 °C
CitO-wt [1]; EMSA, CitO-wt, citrate up to 5 mM
  Stability of the CitO-DNA complexes: increased
CitO-wt [1]; EMSA, 5 mM citrate alone
  Effect on CitO-PcitH−CL complex formation: improved the formation of intermediate complexes
CitO-Q64A [16]
  Ability to bind the DNA probe in presence of citrate: comparable to the wild type
CitO-H74A [17]
  Effect on formation of protein:DNA complexes: did not modify the formation of protein:DNA complexes
CitO-R97A [18]
  Effect on formation of protein:DNA complexes: did not modify the formation of protein:DNA complexes
CitO-F143A [19]
  Shift of protein:DNA complex: strong shift
CitO-H191A [20]
  Effect on formation of protein:DNA complexes: did not modify the formation of protein:DNA complexes
CitO-L214A [21]
  Effect on binding to PcitH−CL: increased the binding
PcitCL promoter activity
  Increment in the β-galactosidase activity: 64 fold
PcitCL promoter activity; CitO-H191A strain
  β-galactosidase activity: very low β-galactosidase activity
PcitCL promoter activity; CitO-R97A strain
  β-galactosidase activity: very low β-galactosidase activity
PcitCL promoter activity; strain carrying CitO-H74A
  β-galactosidase activity: reduced β-galactosidase activity
PcitCL promoter activity; strain containing CitO-F143A
  β-galactosidase activity: induced
PcitCL promoter activity; strain containing CitO-Q64A
  β-galactosidase activity: induced
PcitCL promoter activity; strain containing CitO-wt
  β-galactosidase activity: induced
CitO
  Activation of CitO: specifically activated only by citrate

## O=C(O)CC(C(=O)O)C(O)C(=O)O (stereo not shown) [isocitrate]
CitO-wt [9]; [26]
  Shift in the Tm2: did not show a shift in the Tm2

## O=C(O)CC(O)C(=O)O (stereo not shown) [malate]
CitO-wt [9]; [26]
  Shift in the Tm2: did not show a shift in the Tm2

## CitO, regulator of citrate metabolism from Enterococcus faecalis (natural protein)
[22]
  stoichiometry N: 2

## GGTATACGTTCATTATAGAAAAAACCGTTAAAAAACCTAGTGAAAACACTAGCTCAGATTGTTCTTTTATTGTTTATTTTGTGAAAAAAACTCTGTAAACATTGGTATATAAGCATTTATCAGCCGTTAAGATTCTATTAATATTATATTAAGTTATTAATAAGAATTTGATTGTTGAATTGTTTTTTTGATGTTCTTTTTGTTTTAGGCTATTTATTCTCTGCGAAAGTTTGTATATTCTCACAC (double strand) [PcitH-CL]
[23]
  binding: binds

## succinate
CitO-wt [9]
  Shift in the Tm2: did not show a shift in the Tm2
